The values that follow come from patent US5948786A, “Piperidinylpyrimidine derivatives” (Sumitomo Pharmaceuticals Company, Limited, priority 1996, dated 1999).

Common to all, as to type: cell-based
For assay [1], the system named is Tat induced HIV-1 LTR-CAT gene expression in Jurkat cells. In words: Tat induced HIV-1 LTR-CAT gene expression in Jurkat cells. Particulars: Homo sapiens, Tat (pSV-Tat), 24 hours. How it is done: (§1) p469, HIV-1 LTR driven CAT and pSV-Tat, Tat-expression vector were kindly provided from Dr. Gary J. Nabel (Nature Vol. 326, 711(1987))
(§2) RPMI 1640 medium (Life Technologies, Grand Island, N.Y., USA) was supplemented with heat-inactivated fetal calf serum (FBS; Sigma, St. Louis, Mo., USA).
(§3) Human T lymphoma cell line, Jurkat, was cultured in medium described above Transfection;
(§4) Introduction of plasmid DNA into cells was carried out according to the method described in Chiang, J. Li et al., Proc. Natl. Acad. Sci. Vol. 92, 5461-5464 (1995). Briefly, the cells were suspended with the medium at 2×10^7 cells/ml followed by addition 1 μg of p469 and 0.5 μg of DEAE-dextran (Sigma). In some experiments the cells were co-transfected with 0.5 μg of pSV-Tat. After 10 minutes incubation at room temperature with occasionally mixing, the cells were pulsed with electroporation apparatus at 140 V. The cells were re-suspended with the fresh medium and cultured for 20 hours at 37° C.
(§5) A compound tested was dissolved in dimethylsulfoxide at 100 mM as a stock solution. The aliquots of the stock solution were kept frozen at -20° C. Jurkat cells transfected with p469 were treated with 10 ng/ml of phorbol 12-myristate 13-acetate (PMA; Sigma) to activate HIV-1-LTR directed CAT gene transcription in the presence of the compound. In the case of cells transfected with p469 and pSV-Tat, they were simply treated with the compound. After the cells were cultured for an additional 24 hours at 37° C., the cells were washed 2 times with phosphate-buffered saline and lysed in 50 mM Tris-HCl plus 15% glycerol with repeated cycles of freeze and thaw. The cell lysates were clarified by centrifugation followed by determination of protein concentration by Bradford method (Bio-Rad, Hercules, Calif., USA). Measurement of a CAT activity in cell lysates was carried out according to a similar method described in Fridovich-Keil J. L. et. al., Cell Growth and Differentiation, Vol. 2, 67-76(1991). Equal amount (30 μg of protein) of cell lysates was incubated at 37° C. with 35 μg of acetyl co-enzyme A (GIBCO/BRL, Grand Island, Mo., USA) and 0.1 μCi of 14C-chloramphenicol (Dupont, NEN Boston, Mass., USA) in […] solution for 2 hours. Acetyl-14C-chloramphenicol was extracted with 9 volumes of ethyl acetate and fractionated on a TLC gel with 1:19 (v/v) in methanol/chloroform. The CAT activity was detected by autoradiography and quantified by an Imaging Densitometer (model GS-700; Bio-Rad).

Assay [2] relates to TNF α production from human peripheral blood mononuclear cells (PBMC). As to the kind of experiment: Inhibitory activity of compound on TNF α production from PBMC. The method, then:
TNF α was induced by 10 μg/ml of LPS (E. coli O111B4, DIFCO, Detroit, Mich., USA) the cells were cultured for 18 hours at 37° C. A compound of the present invention was dissolved in DMSO and added to the culture simultaneously with LPS. […] Each well of the plate first was incubated at room temperature with biotinylated anti-mouse TNF α polyclonal antibodies (PharMingen) for 45 minutes, then with peroxidase-conjugated streptavidin (Kirkegaard & Perry Laboratories Inc., Gaitherburg, Md., USA) for 30 minutes. After each incubation, the plate was washed 4 to 8 times with PBS containing 0.2% Tween 20. TMB (Kirkegaard & Perry Laboratories Inc.) was the peroxidase substrate used and, the absorbance of each well was quantified at 450 nm by a microplatereader (Molecular Devices Corp., CA, USA). TNF α levels in the supernatant were quantified with rm-TNF α as the standard. Inhibitory activity of TNF α production was also quantified using human peripheral blood mononuclear cells(PBMC) instead of PEC's. Results are shown in table 9, 10, 11, 12, 13, 14, 15, 16, 17, 18, 19 and 20.

The test system of assay [3] is HIV-1 LTR-CAT gene expression in Jurkat cells. As to the kind of experiment: PMA induced HIV-1 LTR-CAT gene expression in Jurkat cells. The following applies: Homo sapiens, PMA 10 ng/ml, 24 hours. How it is done:
as §1, §2, §3, §4, §5

Assay [4] has as its system TNF α production from mouse macrophages. In words: Inhibitory activity of compound on TNF α Production from mouse macrophages (LPS-induced PEC's). The following applies: Macrophage, LPS 10 μg/ml, 18 hours. In short, it runs like this:
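Thioglycollate-elicited peritoneal macrophages from female BALB/c mice (adherent, 2×10^5 cells/well) were stimulated with 10 μg/ml LPS plus compound (final DMSO below 0.1%) for 18 h at 37°C. Supernatant TNF α was measured by sandwich ELISA (TMB, 450 nm) against a recombinant mouse TNF α standard.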

Molecules are shown by their SMILES.

For orientation: inhibition means the relative decrease from the control value, in per cent. A low value points to a weak effect. For the compound `COc1ccc2nc(N)nc(C3CCN(C(=O)c4ccc5c(c4)OCO5)CC3)c2c1` [Example 117], the inhibition at 5 µM in assay [1] was 36%; in assay [3], 92%. For the same compound, the inhibition at 30 µM in assay [2] stood at 43%; in assay [4] it was 54%.
As to `COc1ccc(Cc2cc(C3CCN(C(=O)c4ccc5c(c4)OCO5)CC3)nc(N)n2)cc1` [Example 210, 2-amino-4-(4-methoxybenzyl)-6-[1-(3,4-methylenedioxybenzoyl)-4-piperidinyl]pyrimidine], the inhibition at 5 µM in assay [1] is 66%; in assay [3], 81%. In addition, the inhibition at 30 µM in assay [2] was found to be 80%; in assay [4] it was 75%.
On to `COc1ccc(OC)c(Cc2cc(C3CCN(C(=O)c4ccc5c(c4)OCO5)CC3)nc(N)n2)c1` [Example 307], for which the inhibition at 5 µM in assay [1] was 66%; in assay [3], 97%. In assay [2], the inhibition at 30 µM was found to be 81%.
